Experimental data published in patent US9844531B2, “Methods of maintaining and improving muscle function” (ABBOTT LABORATORIES, priority 2013, dated 2017).
Where “and” joins values, the source holds several entries; their conditions need not be identical. Identical values can stand only once. Entries after “also recorded” stand apart in the source; their conditions may differ.

Key:
[1] = system: gastrocnemius muscle; experiment: Gastrocnemius muscle wet weight in the aged SD rat model of sarcopenia; type: in vivo, Sprague Dawley rat; conditions: 8 weeks
Description: (§1) Example 4 illustrates the effect of 8 weeks of dietary EGCg supplementation in the aged Sprague Dawley (SD) rat model of sarcopenia. More particularly, the level of myostatin in gastrocnemius muscle lysates of young SD rats (“young”), aged SD rats (“old”), and aged SD rats administered EGCg (“old-EGCg”) was analyzed and compared.
In Vivo Study—EGCg Supplementation-Male SD rats (20 months old) were purchased from Harlan (Indianapolis, Ind.). The rats were single-housed in cages with hardwood chip bedding and were exposed to a 12-hour light cycle. For 1 week, rats had ad libitum access to purified diet AIN-93M (Research Diets, #D10012M) and water during adaptation to the animal facility. The AIN-93M diet typically comprises about 13% (by weight) protein, about 73% (by weight) carbohydrate, and about 4% (by weight) fat, and has an energy content of about 3.77 kcal/gram. Subsequently, the rats were given ad libitum access to AIN-93M diet supplemented with EGCg (>95%) (Teavigo, DSM) at 200 mg/kg body weight (n=12) (“old-EGCg” or “EGCg supplemented”) or control AIN-93 diet (n=11) (“old” or “Control”) for 8 weeks.
Preparation of Muscle Lysates-Whole gastrocnemius muscles were collected from euthanized rats, weighed, and flash-frozen on liquid nitrogen and stored in aluminum foil at −80° C. Subsequently, the gastrocnemius muscle samples were partially thawed on dry ice. Approximately 200 mg of tissue was obtained from each muscle sample by mechanical biopsy punch. The specimens were quickly pulverized on liquid nitrogen and transferred to a 15 mL conical tube and weighed. A mild, detergent-free lysis buffer (9×) was added to the dried specimen in the conical tube. 9× Lysis buffer (50 mM Tris.HCl, 2 mM EDTA, pH 7.4/NaOH) was supplemented with a mammalian protease inhibitor cocktail (Sigma-Aldrich, Inc.) at a 1:200 dilution and stored on ice. The specimens were then vortexed for 10 seconds ahead of homogenization at 25×1000 rpm for approximately 10 seconds. The lysate was vortexed again for 10 seconds and transferred to a 1.5 mL tube. […]

[2] = system: myostatin in C2C12 myotubes; experiment: Western blot of myostatin expression in serum starved C2C12 myotubes; type: cell-based; conditions: for Myostatin (% control): 24 hrs, NC = 100, No Serum = 315
Description: Example 5 illustrates the effect of EGCg on expression of myostatin in serum starved C2C12 myotubes. C2C12 myoblasts were passaged in DMEM supplemented with 10% fetal calf serum (FCS), 1% glutamine, and 1% penicillin-streptomycin under an atmosphere of 10% CO2 in air at 37° C. When the myoblasts reached about 80% confluency, they were differentiated into myotubes in DMEM containing 2% horse serum (HS), with medium changes every 2 days. Differentiation was complete in 5-7 days, and the myotubes remained viable for a further 4-5 days.
To induce protein degradation in the myotubes, HS-supplemented DMEM media was replaced with DMEM medium without any serum for 24 hrs, while the negative control group of myotubes (“NC”) was not deprived of serum (i.e., the NC group was re-fed with DMEM media containing 2% HS). Myotubes were treated with EGCg (10 μM and 25 μM) over this serum starvation period. Western blot analysis was carried out on cell lysates as described in Example 4.
FIG. 4 and Table 5 illustrate the expression of myostatin in the non-serum starved control cells (“NC”), serum starved control cells (“No Serum”), and EGCg treated serum starved cells (“No Serum+10 μM EGCg” and “No Serum+25 μM EGCg”). The densitometric analysis was based on three separate blots. Results are expressed as mean plus S.E.M., and statistical analysis between groups was determined by one-way ANOVA followed by Tukey's test. The difference from the “NC” group is indicated as “a” (p<0.01), while the difference from the “No Serum” group is indicated as “b” (p<0.01).

[3] = system: VEGF; experiment: VEGF level after 8 weeks of dietary EGCg supplementation in aged SD rats (multi-analyte profiling); type: in vivo, Sprague Dawley rat; conditions: for VEGF: gastrocnemius muscle lysate, 22 mos at sacrifice
Description: (§2) Example 3 illustrates the effect of 8 weeks of dietary EGCg supplementation on skeletal muscle biomarkers in the aged Sprague Dawley (SD) rat model of sarcopenia. More particularly, gastrocnemius muscle lysates of aged SD rats administered EGCg were analyzed for changes in various skeletal muscle biomarkers.
(§3) In Vivo Study 1—Aged (25 Months Old) Vs. Adult (13 Months Old)-Male SD rats (12 months old; adult rats; Dataset A) and male SD rats (24 months old; aged rats; Dataset B) were purchased from Harlan (Indianapolis, Ind.). The rats were single-housed in cages with hardwood chip bedding and were exposed to a 12-hour light cycle. At receipt, rats had ad libitum access to natural chow (Teklad Global 18% Protein Rodent Diet, catalog #2018S, Harlan) and water during adaptation to the animal facility. Adult rats (Dataset A) were 13 months old at the time of sacrifice, and aged rats (Dataset B) were 25 months old at the time of sacrifice. The right gastrocnemius muscle of the rats were collected and flash-frozen on liquid nitrogen.
(§4) In Vivo Study 2—EGCg Supplementation-Male SD rats (19 months old) were purchased from Harlan (Indianapolis, Ind.). The rats were single-housed in cages with hardwood chip bedding and were exposed to a 12-hour light cycle. At receipt, rats had ad libitum access to purified diet AIN-93M (Research Diets, #D10012M) and water during adaptation to the animal facility. Subsequently, the rats were given ad libitum access to AIN-93M diet supplemented with EGCg-rich (>95%) Teavigo® at 200 mg/kg body weight (Dataset C) for 8 weeks.
as §4, with “Vivo Study 3—EGCg Supplementation-Male SD” for “Vivo Study 2—EGCg Supplementation-Male SD”, “access to either AIN-93M diet (Dataset D) or AIN-93M diet” for “access to AIN-93M diet”, “Teavigo® at 50 mg/kg body” for “Teavigo® at 200 mg/kg body”, “weight (Dataset E) for 8” for “weight (Dataset C) for 8”
(§5) Preparation of Muscle Lysates-Whole gastrocnemius muscles were collected from euthanized rats (Dataset A, Dataset B, Dataset C, Dataset D, and Dataset E) and flash-frozen on liquid nitrogen and stored in aluminum foil at −80° C. Subsequently, the gastrocnemius muscle samples were partially thawed on dry ice. Approximately 200 mg of tissue was obtained from each muscle sample by mechanical biopsy punch. The specimens were quickly pulverized on liquid nitrogen and transferred to a 15 mL conical tube and weighed. A mild, detergent-free lysis buffer (9×) was added to the dried specimen in the conical tube. 9× Lysis buffer (50 mM Tris.HCl, 2 mM EDTA, pH 7.4/NaOH) was supplemented with a mammalian protease inhibitor cocktail (Sigma-Aldrich, Inc.) at a 1:200 dilution and stored on ice. The specimens were then vortexed for 10 seconds ahead of homogenization at 25×1000 rpm for approximately 10 seconds. The lysate was vortexed again for 10 seconds and transferred to a 1.5 mL tube. Lysates were centrifuged/clarified for 5 minutes at 11000 rpm at 4° C. in a standard table-top Eppendorf centrifuge. Supernatant (1 mL) was aliquotted to a 2 mL cryotube and stored at −80° C. Lysates were analyzed by Myriad Rules Based Medicine (Austin, Tex.) on the RodentMAP® v.2.0 Antigens and Rat METABOLIC® multi-analyte profiling platforms.

[4] = system: myostatin; experiment: Western blot of myostatin in gastrocnemius muscle lysates of aged SD rats; type: in vivo, Sprague Dawley rat; conditions: EGCg 200 mg/kg body weight, 8 weeks
Description: as §1
In Vivo Study—EGCg Supplementation-Male SD rats (20 months old) were purchased from Harlan (Indianapolis, Ind.). The rats were single-housed in cages with hardwood chip bedding and were exposed to a 12-hour light cycle. For 1 week, rats had ad libitum access to purified diet AIN-93M (Research Diets, #D10012M) and water during adaptation to the animal facility. The AIN-93M diet typically comprises about 13% (by weight) protein, about 73% (by weight) carbohydrate, and about 4% (by weight) fat, and has an energy content of about 3.77 kcal/gram. Subsequently, the rats were given ad libitum access to AIN-93M diet supplemented with EGCg (>95%) (Teavigo, DSM) at 200 mg/kg body weight (n=12) (“old-EGCg” or “EGCg supplemented”) or control AIN-93 diet (n=11) (“old” or “Control”) for 8 weeks. […]
Western blot analysis was carried out using anti-myostatin antibodies (Anti-GDF8/Myostatin antibody-Cat.# ab996-Abcam). […] Blots were scanned by densitometry to quantitate differences. […]

[5] = system: interleukin-1A (IL1A); experiment: IL1A level after 8 weeks of dietary EGCg supplementation in aged SD rats (multi-analyte profiling); type: in vivo, Sprague Dawley rat; conditions: for IL1A: gastrocnemius muscle lysate, 22 mos at sacrifice
Description: as §2, §3, §4
as §4, with “Vivo Study 3—EGCg Supplementation-Male SD” for “Vivo Study 2—EGCg Supplementation-Male SD”, “access to either AIN-93M diet (Dataset D) or AIN-93M diet” for “access to AIN-93M diet”, “Teavigo® at 50 mg/kg body” for “Teavigo® at 200 mg/kg body”, “weight (Dataset E) for 8” for “weight (Dataset C) for 8”
as §5

[6] = 8 weeks of dietary EGCg supplementation, aged SD rats
[7] = Dataset C, EGCg 200 mg/kg bw in diet, 8 weeks, Quantitative Assay I
[8] = Dataset E, EGCg 50 mg/kg bw in diet, 8 weeks, Quantitative Assay II
[9] = muscle, EGCg 50 mg/kg bw v. control diet, 22 mos, n.s.
[10] = serum, EGCg 200 mg/kg bw, 8 weeks, n.s.

epigallocatechin-3-gallate [EGCg]
gastrocnemius muscle wet weight compared to Control rats (in words) ([1]; EGCg 200 mg/kg body weight): significant increase
Muscle wet weight % change from control ([1]; gastrocnemius, EGCg 200 mg/kg body weight in diet): +5.12%
Muscle Wet Weight (grams) ([1]; gastrocnemius, EGCg 200 mg/kg body weight in diet, n=12, p < 0.05 compared to Control): 3.00 ± 0.03 grams
Myostatin (% control) ([2]; No Serum + 10 μM EGCg): 55 % control
Myostatin (% control) ([2]; No Serum + 25 μM EGCg): 43 % control
myostatin levels compared to the No Serum group (in words) ([2]; serum starved C2C12 myotubes, EGCg 10 μM and 25 μM): significantly lower; also recorded: decrease
level of VEGF in gastrocnemius muscle (in words) [3, 6]: significant increase
VEGF [3, 7]: 229 pg/mL
VEGF [3, 8]: 479 pg/mL
VEGF % change Dataset E/Dataset D [3, 9]: −5% (n.s.)
VEGF, Serum, Dataset C (EGCg Supplemented - 22 mos.) v. Dataset B (25 mos.) [3, 10]: −15% (n.s.)
intramuscular myostatin levels compared to old rats without EGCg (in words) ([4]; western blot): decrease
Myostatin (% cage control) ([4]; Old-EGCg rats (22 months old), single rats (ID 3, 6, 9), densitometry, Old rats 700-800): 80 % cage control and 140 % cage control and 120 % cage control
level of IL1A in gastrocnemius muscle (in words) [5, 6]: significant decrease
IL1A [5, 7]: 14.3 pg/mL
IL1A [5, 8]: 28.0 pg/mL
IL1A % change Dataset E/Dataset D [5, 9]: −12% (n.s.)
IL1A, Serum, Dataset C (EGCg Supplemented - 22 mos.) v. Dataset B (25 mos.) [5, 10]: −8% (n.s.)
